Measurements taken from ChEMBL document CHEMBL1140610, “Matrix metalloproteinases (MMPs): chemical-biological functions and (Q)SARs” (Bioorg Med Chem, 2007).

Target: T1, Interstitial collagenase (Homo sapiens, UniProt P03956)
T1 sequence (P03956 whole entry): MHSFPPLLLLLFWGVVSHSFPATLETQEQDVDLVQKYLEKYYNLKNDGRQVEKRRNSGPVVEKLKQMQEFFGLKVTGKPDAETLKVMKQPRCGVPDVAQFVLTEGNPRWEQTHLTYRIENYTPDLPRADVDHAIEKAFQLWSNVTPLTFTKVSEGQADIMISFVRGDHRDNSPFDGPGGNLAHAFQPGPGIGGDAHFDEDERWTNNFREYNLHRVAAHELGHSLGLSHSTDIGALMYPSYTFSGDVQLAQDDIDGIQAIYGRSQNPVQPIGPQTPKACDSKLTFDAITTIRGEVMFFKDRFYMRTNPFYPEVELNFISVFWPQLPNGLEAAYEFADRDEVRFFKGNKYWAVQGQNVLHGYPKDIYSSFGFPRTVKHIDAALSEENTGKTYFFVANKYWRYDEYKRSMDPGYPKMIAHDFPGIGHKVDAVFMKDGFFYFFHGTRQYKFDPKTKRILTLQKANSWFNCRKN
Conditions: read-out: log(1/IC50) (converted)

Row | SMILES | IC50 [nM]
1 | CNC(=O)[C@@H](Cc1ccc(OC)cc1)NC(=O)C(CC(C)C)CP(=O)(O)Cc1ccc(S(=O)(=O)c2ccccc2)cc1 (some centres undefined) | 1700
2 | CNC(=O)[C@@H](Cc1ccc(OC)cc1)NC(=O)C(CC(C)C)CP(=O)(O)Cc1ccccc1-c1ccccc1 (some centres undefined) | 11000
3 | CNC(=O)[C@@H](NC(=O)C(CCC1CCCCC1)CP(=O)(O)Cc1ccc(Cc2ccccc2)cc1)C(C)(C)C (some centres undefined) | 19100
4 | CNC(=O)[C@@H](Cc1ccc(OC)cc1)NC(=O)C(CC(C)C)CP(=O)(O)Cc1ccc(-c2ccccc2)cc1 (some centres undefined) | 2190
5 | CNC(=O)[C@@H](Cc1ccc(OC)cc1)NC(=O)C(CC(C)C)CP(=O)(O)Cc1ccc(CC(C)C)cc1 (some centres undefined) | 4470
6 | C[C@@]1(O)CCCN(S(=O)(=O)c2ccc(OCc3ccccc3C#N)cc2)C1C(=O)NO (some centres undefined) | 2690
7 | Cc1c(F)cccc1COc1ccc(S(=O)(=O)N2CCC[C@@](C)(O)C2C(=O)NO)cc1 (some centres undefined) | 1290
8 | C[C@@]1(O)CCCN(S(=O)(=O)c2ccc(OCc3ccccc3F)cc2)C1C(=O)NO (some centres undefined) | 182
9 | C[C@@]1(O)CCCN(S(=O)(=O)c2ccc(OCc3cccc(F)c3)cc2)C1C(=O)NO (some centres undefined) | 339
10 | C[C@@]1(O)CCCN(S(=O)(=O)c2ccc(OCc3ccc(F)cc3)cc2)C1C(=O)NO (some centres undefined) | 417
11 | Cc1ccccc1COc1ccc(S(=O)(=O)N2CCC[C@@](C)(O)C2C(=O)NO)cc1 (some centres undefined) | 309
12 | CNC(=O)[C@@H](Cc1ccc(OC)cc1)NC(=O)C(CC(C)C)CP(=O)(O)Cc1cccc(-c2ccccc2)c1 (some centres undefined) | 5130
13 | C[C@@]1(O)CCCN(S(=O)(=O)c2ccc(OCc3ccc(F)cc3Cl)cc2)C1C(=O)NO (some centres undefined) | 309
14 | C[C@@]1(O)CCCN(S(=O)(=O)c2ccc(OCc3ccc(Cl)cc3F)cc2)C1C(=O)NO (some centres undefined) | 120
15 | C[C@@]1(O)CCCN(S(=O)(=O)c2ccc(OCc3ccnc(Cl)c3)cc2)C1C(=O)NO (some centres undefined) | 525
16 | Cc1ncccc1COc1ccc(S(=O)(=O)N2CCC[C@@](C)(O)C2C(=O)NO)cc1 (some centres undefined) | 1580
17 | C[C@@]1(O)CCCN(S(=O)(=O)c2ccc(OCc3ccnc4ccccc34)cc2)C1C(=O)NO (some centres undefined) | 120

Row | SMILES | IC50 [nM]
18 | CNC(=O)[C@@H](NC(=O)C(CC(C)C)CP(=O)(O)Cc1ccc(Cc2ccccc2)cc1)C(C)(C)C (some centres undefined) | 60.3
19 | CNC(=O)[C@@H](NC(=O)C(CCC(F)(F)F)CP(=O)(O)Cc1ccc(Cc2ccccc2)cc1)C(C)(C)C (some centres undefined) | 44.7
20 | CNC(=O)[C@@H](NC(=O)C(CC1CC1)CP(=O)(O)Cc1ccc(Cc2ccccc2)cc1)C(C)(C)C (some centres undefined) | 200
21 | CNC(=O)[C@@H](NC(=O)C(CC1CCC1)CP(=O)(O)Cc1ccc(Cc2ccccc2)cc1)C(C)(C)C (some centres undefined) | 178
22 | CNC(=O)[C@@H](NC(=O)C(CC1CCCCC1)CP(=O)(O)Cc1ccc(Cc2ccccc2)cc1)C(C)(C)C (some centres undefined) | 1820
23 | CNC(=O)[C@@H](NC(=O)C(CCc1ccccc1)CP(=O)(O)Cc1ccc(Cc2ccccc2)cc1)C(C)(C)C (some centres undefined) | 692
24 | CNC(=O)[C@@H](Cc1ccc(OC)cc1)NC(=O)C(CC(C)C)CP(=O)(O)Cc1cccc(CCc2ccccc2)c1 (some centres undefined) | 7410
25 | C[C@@]1(O)CCCN(S(=O)(=O)c2ccc(OCc3cncc4ccccc34)cc2)C1C(=O)NO (some centres undefined) | 7760
26 | CNC(=O)[C@@H](Cc1ccc(OC)cc1)NC(=O)C(CC(C)C)CP(=O)(O)Cc1ccc(CC2CCCCC2)cc1 (some centres undefined) | 1910
27 | C[C@@]1(O)CCCN(S(=O)(=O)c2ccc(OCc3ccncc3)cc2)C1C(=O)NO (some centres undefined) | 191
28 | C[C@@]1(O)CCCN(S(=O)(=O)c2ccc(OCc3cccc(Cl)c3)cc2)C1C(=O)NO (some centres undefined) | 851
29 | CNC(=O)[C@@H](Cc1ccc(OC)cc1)NC(=O)C(CC(C)C)CP(=O)(O)Cc1ccccc1 (some centres undefined) | 15100
30 | CCCC(CP(=O)(O)Cc1ccc(Cc2ccccc2)cc1)C(=O)N[C@H](C(=O)NC)C(C)(C)C (some centres undefined) | 339
31 | CNC(=O)[C@@H](NC(=O)C(CCC(C)C)CP(=O)(O)Cc1ccc(Cc2ccccc2)cc1)C(C)(C)C (some centres undefined) | 3470
32 | CNC(=O)[C@@H](Cc1ccc(OC)cc1)NC(=O)C(CC(C)C)CP(=O)(O)Cc1ccc(Oc2ccccc2)cc1 (some centres undefined) | 2820
33 | COc1ccccc1COc1ccc(S(=O)(=O)N2CCC[C@@](C)(O)C2C(=O)NO)cc1 (some centres undefined) | 2570
34 | C[C@@]1(O)CCCN(S(=O)(=O)c2ccc(OC[n+]3ccncc3)cc2)C1C(=O)NO (some centres undefined) | 1580
